Reference: patent publication US20120157500A1, “JAK INHIBITION BLOCKS RNA INTERFERENCE ASSOCIATED TOXICITIES” (priority 2009, published 2012)

What was measured:
[1] = system: LF01-SSB-induced lethality and visible hematuria; assay: Suppression of LF01-SSB-induced lethality and visible hematuria by inhibitors; type: in vivo; details: rats; for Rescue effect: Death, +inhibitor/−inhibitor / Rescue effect: Red urine, +inhibitor/−inhibitor: inhibitor 1 hr prior to LF01-SSB 9 mg/kg IV, animals with inhibitor/without inhibitor; for Rescue effect: Death, +inhibitor/−inhibitor: deaths until 96 hr; for Rescue effect: Red urine, +inhibitor/−inhibitor: urine collected over 24 hr
Excerpt: Since LF01-siRNA nanoparticles provoked lethality and multifactorial toxicities involving different systems in rats, this offers an in vivo model for pharmacologically probing the mechanism that triggers LF01-siRNA toxicities. We first evaluated the suppression of LF01-SSB-induced lethality and visible hematuria by anti-inflammation drugs and pathway-specific inhibitors of the innate immune system as shown in Table 1. […] Rats were pre-dosed with either a vehicle or one of these reagents using the dosing regimen listed in Table 1, followed by an IV dose of LF01-SSB at 9 mpk 1 hr later, and animals were monitored for lethality for 96 hr. In addition, urine was collected over the course of 24 hr for visual observation of hematuria.
Rats were dosed with PBS or one of these inhibitors 1 hr prior to IV administration of PBS or […] at 9 mg/kg. Urine samples were collected over a course of 24 hr for visual examination of hematuria (red urine). Animals were monitored for lethality until 96 hr post LF01-SSB dose. Unscheduled deaths and cases of visible hematuria in animals receiving LF01-SSB with or without inhibitor pretreatment were scored and presented.
(§1) Rat studies. All animal studies were conducted at AAALAC-accredited Merck Research laboratories' animal facility located at West Point, Pa., and all study protocols were approved by Merck West Point Institutional Animal Care and Use Committee (IACUC). Female Sprague-Dawley (SD) rats obtained from Charles River were used in these studies at an age of 4-6 weeks and with a body weight of 120-160 grams. Anti-inflammation agents were administrated using the dosing regimens listed in Table 1, 1 hr prior to tail vein injection of liposomal siRNA nanoparticles in PBS in a volume of 0.8 ml under normal pressure. At 3 hr post injection of liposomal siRNA, ˜0.2 ml blood was collected by retro-orbital bleed under anesthesia and processed as plasma for the assessment of cytokines. At 24 hr, blood was collected for evaluation of complete blood cell counts (CBC), coagulation parameters and serum chemistry by venipuncture under anesthesia followed by exsanguination, and tissues from liver, spleen and kidney were collected for determination of SSB and ApoB mRNA levels and TUNEL analysis. For visual examination of urine color, rats were housed in metabolic cages to collect urine over a course of 24 hours after injection of liposomal siRNA nanoparticles. Animals were examined 3 times a day for detection of lethality over a course of 96 hours.

IKK1 = biological target: T1, IKK1 (Homo sapiens, UniProt O15111); details: Table 1, from former studies; cited from earlier work
T1 sequence (O15111 1-745): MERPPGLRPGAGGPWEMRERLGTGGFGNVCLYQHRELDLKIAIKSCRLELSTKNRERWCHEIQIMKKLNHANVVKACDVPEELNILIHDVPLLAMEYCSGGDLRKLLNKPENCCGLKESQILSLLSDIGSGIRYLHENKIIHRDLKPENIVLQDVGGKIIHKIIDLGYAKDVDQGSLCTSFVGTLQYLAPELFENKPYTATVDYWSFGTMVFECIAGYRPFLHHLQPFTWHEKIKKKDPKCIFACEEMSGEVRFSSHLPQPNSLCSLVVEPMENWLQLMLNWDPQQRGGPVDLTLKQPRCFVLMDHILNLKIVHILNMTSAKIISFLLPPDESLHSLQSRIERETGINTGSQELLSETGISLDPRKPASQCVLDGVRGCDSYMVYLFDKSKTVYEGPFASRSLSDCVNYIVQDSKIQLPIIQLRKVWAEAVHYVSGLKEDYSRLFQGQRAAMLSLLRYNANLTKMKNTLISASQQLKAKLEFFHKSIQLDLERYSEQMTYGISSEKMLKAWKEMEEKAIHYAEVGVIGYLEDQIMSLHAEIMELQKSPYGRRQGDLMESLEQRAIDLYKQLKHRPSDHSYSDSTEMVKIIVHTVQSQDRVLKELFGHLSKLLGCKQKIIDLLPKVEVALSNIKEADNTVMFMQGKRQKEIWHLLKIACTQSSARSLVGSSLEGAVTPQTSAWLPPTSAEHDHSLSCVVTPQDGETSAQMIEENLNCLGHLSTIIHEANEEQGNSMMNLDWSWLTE

IKK2 = biological target: T2, IKK2 (Homo sapiens, UniProt O14920); details: Table 1, from former studies; cited from earlier work
T2 sequence (O14920 1-756): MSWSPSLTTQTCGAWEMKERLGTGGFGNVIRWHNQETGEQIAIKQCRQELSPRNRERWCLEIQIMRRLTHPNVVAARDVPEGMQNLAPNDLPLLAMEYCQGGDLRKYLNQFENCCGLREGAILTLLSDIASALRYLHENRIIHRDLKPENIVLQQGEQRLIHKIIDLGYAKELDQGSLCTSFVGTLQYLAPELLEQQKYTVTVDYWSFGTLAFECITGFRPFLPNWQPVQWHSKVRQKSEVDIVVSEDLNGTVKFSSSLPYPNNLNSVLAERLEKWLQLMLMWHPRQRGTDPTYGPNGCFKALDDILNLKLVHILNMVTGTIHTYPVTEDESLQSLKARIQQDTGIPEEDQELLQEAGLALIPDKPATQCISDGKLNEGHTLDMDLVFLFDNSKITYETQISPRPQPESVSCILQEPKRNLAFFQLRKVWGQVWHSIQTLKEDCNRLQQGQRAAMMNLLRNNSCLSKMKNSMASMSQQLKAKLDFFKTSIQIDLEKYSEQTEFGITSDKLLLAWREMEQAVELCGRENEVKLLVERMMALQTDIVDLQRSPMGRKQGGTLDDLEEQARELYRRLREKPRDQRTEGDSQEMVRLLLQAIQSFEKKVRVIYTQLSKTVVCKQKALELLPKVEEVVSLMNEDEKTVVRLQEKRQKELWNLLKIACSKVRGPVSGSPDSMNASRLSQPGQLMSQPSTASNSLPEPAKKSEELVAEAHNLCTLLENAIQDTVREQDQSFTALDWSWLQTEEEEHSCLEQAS

[2] = system: LF01-SSB-induced toxicities; assay: LF01-SSB-induced toxicities in rats with or without inhibitor pretreatment; type: in vivo; details: for suppression of cytokine release, elevation of serum transaminases, thrombocytopenia or coagulopathy induced by LF01-SSB: pretreatment before LF01-SSB 3 mg/kg
Description: as §1, with “At 24 hr, blood was collected for evaluation of complete blood cell counts (CBC), coagulation parameters and serum chemistry by venipuncture under anesthesia followed by exsanguination, and tissues from liver, spleen and kidney were collected for determination of SSB and ApoB mRNA levels and TUNEL analysis.” left out
Analyses of rat blood samples. Cytokines in plasma were quantified using a microsphere bead-based, multiplexed assay, Milliplex™ RCYTO-80K-PMX23 (Millipore) which allows simultaneous quantification of 23 rat cytokines including IFNγ, IL-6, MCP-1 and TNFα. All CBC, coagulation and serum chemistry parameters were analyzed by Merck Laboratory of Animal Resources and the Safety Assessment Department at West Point, Pa. CBC was determined on whole blood placed in an EDTA-treated tube using an Advia 120 Hematology Analyzer (Siemens). Coagulation parameters in citrated plasma were assessed with a Behring Coagulation System (Siemens) and serum chemistry evaluation was conducted with an Advia 1800 Clinical Chemistry Analyzer (Siemens).
TUNEL (Terminal deoxynucleotidyl transferase-mediated dUTP-biotin Nick End Labeling). TUNEL staining in tissue sections was performed using a ‘TACS™ TdT-Blue Label in Situ Apoptosis Detection Kit’ (Trevigen). Briefly, 5 μm paraffin embedded sections of liver tissue were deparaffinized, fixed, labeled, and counterstained according to the manufacturer's recommendations. In Situ labeling procedure includes extension of 3′ ends with Biotin-dNTP (TdT Labeling Rxn), followed by additions of Strep-HRP and “TACS-Blue” Label or DAB for color development. TUNEL signal was quantified using the Arial system (Applied Imaging). Quantification of mRNA. qRT-PCR assays were used to quantify SSB and ApoB mRNA levels relative to the housekeeping gene Ppib in lysates prepared from tissues using kits from Applied Biosystems. The catalog numbers are Rn0057621_g1 for SSB, Rn01499054_m1 for ApoB and Rn03302274_m1 for Ppib.

| SMILES | Rescue effect: Death, +inhibitor/−inhibitor [1] | Rescue effect: Red urine, +inhibitor/−inhibitor [1] | IC50 (IKK1) [nM] | IC50 (IKK2) [nM] | effect on LF01-SSB-induced coagulopathy (elongation of aPTT) ([2]; rats, pre-dosed 1 hr prior to LF01-SSB 3 mg/kg IV, 24 hr) | effect on LF01-SSB-induced coagulopathy (elongation of aPTT) ([2]; rat, in vivo) | effect on LF01-siRNA induction of IL-6 ([2]; rats, plasma 3 hr post LF01-SSB dose) | effect on LF01-SSB-induced lethality and visible hematuria ([1]; pre-dosed 1 hr before LF01-SSB 9 mpk IV, monitored 96 hr) | effect on LF01-SSB toxic responses (cytokine induction, ALT and AST elevation, thrombocytopenia, elongation of aPTT, hepatic and splenic cell death) ([2]; rat, in vivo) | suppression of cytokine release, elevation of serum transaminases, thrombocytopenia or coagulopathy induced by LF01-SSB ([2]; rats) |
| --- | --- | --- | --- | --- | --- | --- | --- | --- | --- | --- |
| N.S=C(S)N1CCCC1 [PDTC] | 4/5 | 3/5 | 400 | 20 | no mitigation effect | – | – | – | – | – |
| C[S+]([O-])c1ccc(-c2nc(-c3ccncc3)c(-c3ccc(F)cc3)[nH]2)cc1 (stereo not shown) [SB-203580] | 2/5 | 2/5 | – | – | – | no mitigation effect | abrogated | – | – | – |
| C[C@@H]1CCN(C(=O)CC#N)C[C@@H]1N(C)c1ncnc2[nH]ccc12 [CP-690550] | 0/4 | 0/4 | – | – | – | – | – | prevented | suppression of toxic responses | – |
| Cc1ccc(-c2ncc(Cl)cc2-c2ccc(S(C)(=O)=O)cc2)cn1 [Etoricoxib] | 4/3 | 4/4 | – | – | – | – | – | – | – | no appreciable suppression |
| N=C(N)NN [Aminoguanidine] | 4/3 | 2/3 | – | – | – | – | – | – | – | no appreciable suppression |
